Experimental data reported in patent US7595398B2, “N-(5-membered aromatic ring)-amido anti-viral compounds” (SmithKline Beecham Corporation, priority 2005, dated 2009).

system: HCV replicon I389luc-ubi-neo/NS3-3′/ET in ET (Huh-lucubineo-ET) cells; screening for HCV RNA dependent RNA polymerase; experiment: Replicon Assay (luciferase, ET cell line Huh-lucubineo-ET); type: cell-based; settings: Hepatitis C virus; inhibition of replication relative to no compound control; test concentration of 10 μM according to the fitted equation; luciferase 48-72 hours
Experimental: A cell line, ET (Huh-lucubineo-ET) was used for screening of compounds of the present invention for HCV RNA dependent RNA polymerase. The ET cell line was stably transfected with RNA transcripts harboring a I389luc-ubi-neo/NS3-3′/ET; replicon with firefly luciferase-ubiquitin-neomycin phosphotransferase fusion protein and EMCV-IRES driven NS3-5B polyprotein containing the cell culture adaptive mutations (E1202G; T12801; K1846T) (Krieger at al, 2001 and unpublished). The ET cells were grown in DMEM, supplemented with 10% fetal calf serum, 2 mM Glutamine, Penicillin (100 IU/mL)/Streptomycin (100 μg/mL), 1× nonessential amino acids, and 250 μg/mL G418 (“Geneticin”). They were all available through Life Technologies (Bethesda, Md.). The cells were plated at 0.5-1.0×10^4 cells/well in the 96 well plates and incubated for 24 hrs before adding nucleoside analogs. […] Luciferase activity were measured 48-72 hours later by adding a lysis buffer and the substrate (Catalog number Glo-lysis buffer E2661 and Bright-Glo luciferase system E2620 Promega, Madison, Wis.). Cells should not be too confluent during the assay. Percent inhibition of replication was plotted relative to no compound control. Under the same condition, cytotoxicity of the compounds was determined using cell proliferation reagent, WST-1(Roche, Germany). The compounds showing antiviral activities, but no significant cytotoxicities were chosen to determine IC50 and TC50. For these determinations, 10 concentrations of each compound were used. Concentrations for test compounds typically span a range of 500 fold. IC50 and TC50 values were calculated by fitting % inhibition at each concentration (I) to the following equation: % inhibition=100%/[1+10^(log IC50−log (I))*b] where b is Hill's coefficient.

Going from `O=C(Nc1nc(-c2cccc(N(CC3CC3)CC3CC3)c2)cs1)[C@@H]1CCCN1C(=O)OCc1ccccc1` [Compound 5383, 2-{4-[3-(Bis-cyclopropylmethyl-amino)-phenyl]-thiazol-2-ylcarbamoyl}-pyrrolidine-1-carboxylic acid benzyl ester] to `CCCc1ccc(-c2csc(NC(=O)[C@@H]3CCCN3C(=O)OCc3ccccc3)n2)cc1` [Compound 5099, 2-[4-(4-Propyl-phenyl)-thiazol-2-ylcarbamoyl]-pyrrolidine-1-carboxylic acid benzyl ester], the inhibition at 10 µM falls from 47% to 35.7%.

Going from `O=C(NC1CC1)c1ccc(-c2csc(NC(=O)C3CCCC3C(=O)NCc3ccccc3)n2)cc1` (racemic) [Compound 5382, Cyclopentane-1,2-dicarboxylic acid 1-benzylamide 2-{[4-(4-cyclopropylcarbamoyl-phenyl)-thiazol-2-yl]-amide}] to `O=C(NC1CC1)c1ccc(-c2csc(NC(=O)[C@@H]3[C@@H](O)CCN3C(=O)OCc3ccccc3)n2)cc1` [Compound 5376, 2-[4-(4-Cyclopropylcarbamoyl-phenyl)-thiazol-2-ylcarbamoyl]-3-hydroxy-pyrrolidine-1-carboxylic acid benzyl ester], the inhibition at 10 µM falls from 100% to 96%.

First: CC(=O)c1ccc(-c2csc(NC(=O)[C@@H]3CCCN3C(=O)OCc3ccccc3)n2)cc1 [Compound 5309, 2-[4-(4-Acetyl-phenyl)-thiazol-2-ylcarbamoyl]-pyrrolidine-1-carboxylic acid benzyl ester]
Second: CC(=O)Nc1ccc(-c2csc(NC(=O)[C@@H]3CCCN3C(=O)OCc3ccccc3)n2)cc1 [Compound 5048, 2-[4-(4-Acetylamino-phenyl)-thiazol-2-ylcarbamoyl]-pyrrolidine-1-carboxylic acid benzyl ester]
The inhibition at 10 µM of the first is lower: 99.5% for the first, 100% for the second.

`COCCCNC(=O)c1ccc(-c2csc(NC(=O)[C@@H]3CCCN3C(=O)OCc3ccccc3)n2)cc1` [Compound 5370, 2-{4-[4-(3-Methoxy-propylcarbamoyl)-phenyl]-thiazol-2-ylcarbamoyl}-pyrrolidine-1-carboxylic acid benzyl ester] and `O=C(NCCCO)c1ccc(-c2csc(NC(=O)[C@@H]3CCCN3C(=O)OCc3ccccc3)n2)cc1` [Compound 5317, 2-{4-[4-(3-Hydroxy-propylcarbamoyl)-phenyl]-thiazol-2-ylcarbamoyl}-pyrrolidine-1-carboxylic acid benzyl ester] are the same in inhibition at 10 µM: 100% for the first, 100% for the second.

First: O=C(Nc1nc(COc2ccc(Cl)cc2)cs1)[C@@H]1CCCN1C(=O)OCc1ccccc1 [Compound 5045, 2-[4-(4-Chloro-phenoxymethyl)-thiazol-2-ylcarbamoyl]-pyrrolidine-1-carboxylic acid benzyl ester]
Second: O=C(Nc1nc(-c2ccccc2Cl)cs1)[C@@H]1CCCN1C(=O)OCc1ccccc1 [Compound 5103, 2-[4-(2-Chloro-phenyl)-thiazol-2-ylcarbamoyl]-pyrrolidine-1-carboxylic acid benzyl ester]
The inhibition at 10 µM of the first is lower: 6.85% for the first, 99.3% for the second.

First: O=C(NCc1ccc(-c2csc(NC(=O)[C@@H]3CCCN3C(=O)OCc3ccccc3)n2)cc1)C1CC1 [Compound 5369, 2-(4-{4-[(Cyclopropanecarbonyl-amino)-methyl]-phenyl}-thiazol-2-ylcarbamoyl)-pyrrolidine-1-carboxylic acid benzyl ester]
Second: O=C(NC1CCCCC1)c1ccc(-c2csc(NC(=O)[C@@H]3CCCN3C(=O)OCc3ccccc3)n2)cc1 [Compound 5303, 2-[4-(4-Cyclohexylcarbamoyl-phenyl)-thiazol-2-ylcarbamoyl]-pyrrolidine-1-carboxylic acid benzyl ester]
The inhibition at 10 µM of the first is lower: 98.3% for the first, 100% for the second.

First: O=C(NC1CC1)c1ccc(-c2csc(NC(=O)[C@@H]3CCCN3C(=O)c3ccncc3)n2)cc1 [Compound 5321, 1-(Pyridine-4-carbonyl)-pyrrolidine-2-carboxylic acid [4-(4-cyclopropylcarbamoyl-phenyl)-thiazol-2-yl]-amide]
Second: O=C(Nc1ccncc1)c1ccc(-c2csc(NC(=O)[C@@H]3CCCN3C(=O)OCc3ccccc3)n2)cc1 [Compound 5302, 2-{4-[4-(Pyridin-4-ylcarbamoyl)-phenyl]-thiazol-2-ylcarbamoyl}-pyrrolidine-1-carboxylic acid benzyl ester]
The inhibition at 10 µM of the first is lower: 91.3% for the first, 100% for the second.

Going from `O=C(Nc1nc(-c2c(F)c(F)c(F)c(F)c2-c2ccccc2)cs1)[C@@H]1CCCN1C(=O)OCc1ccccc1` [Compound 5014, 2-[4-(3,4,5,6-Tetrafluoro-biphenyl-2-yl)-thiazol-2-ylcarbamoyl]-pyrrolidine-1-carboxylic acid benzyl ester] to `COc1ccc(-c2csc(NC(=O)[C@@H]3CCCN3C(=O)OCc3ccccc3)n2)cc1Br` [Compound 5016, 2-[4-(3-Bromo-4-methoxy-phenyl)-thiazol-2-ylcarbamoyl]-pyrrolidine-1-carboxylic acid benzyl ester], the inhibition at 10 µM rises from 66.6% to 100%.

First: O=C(Nc1nc(CSc2nc3ccccc3[nH]2)cs1)[C@@H]1CCCN1C(=O)OCc1ccccc1 [Compound 5064, 2-[4-(1H-Benzoimidazol-2-ylsulfanylmethyl)-thiazol-2-ylcarbamoyl]-pyrrolidine-1-carboxylic acid benzyl ester]
Second: O=C(Nc1nc(C2(c3ccccc3)CCCC2)cs1)[C@@H]1CCCN1C(=O)OCc1ccccc1 [Compound 5028, 2-[4-(1-Phenyl-cyclopentyl)-thiazol-2-ylcarbamoyl]-pyrrolidine-1-carboxylic acid benzyl ester]
The inhibition at 10 µM of the first is lower: 18.1% for the first, 98.9% for the second.

Going from `COc1ccc(-c2csc(NC(=O)[C@@H]3CCCN3C(=O)OCc3ccccc3)n2)cc1OC` [Compound 5054, 2-[4-(3,4-Dimethoxy-phenyl)-thiazol-2-ylcarbamoyl]-pyrrolidine-1-carboxylic acid benzyl ester] to `COc1ccc(-c2csc(NC(=O)[C@@H]3CCCN3C(=O)OCc3ccccc3)n2)cc1[N+](=O)[O-]` [Compound 5091, 2-[4-(4-Methoxy-3-nitro-phenyl)-thiazol-2-ylcarbamoyl]-pyrrolidine-1-carboxylic acid benzyl ester], the inhibition at 10 µM rises from 99.3% to 100%.

Going from `O=C(NC1CCCC1)c1ccc(-c2cnc(NC(=O)[C@@H]3CCCN3C(=O)OCc3ccccc3)s2)cc1` [Compound 5368, 2-[5-(4-Cyclopentylcarbamoyl-phenyl)-thiazol-2-ylcarbamoyl]-pyrrolidine-1-carboxylic acid benzyl ester] to `O=C(NC1CCCC1)c1cccc(-c2cnc(NC(=O)[C@@H]3CCCN3C(=O)OCc3ccccc3)s2)c1` [Compound 5363, 2-[5-(3-Cyclopentylcarbamoyl-phenyl)-thiazol-2-ylcarbamoyl]-pyrrolidine-1-carboxylic acid benzyl ester], the inhibition at 10 µM falls from 50.8% to 1.64%.

Compared with `Nc1cccc(-c2cnc(NC(=O)[C@@H]3CCCN3C(=O)OCc3ccccc3)s2)c1` [Compound 5114, 2-[5-(3-Amino-phenyl)-thiazol-2-ylcarbamoyl]-pyrrolidine-1-carboxylic acid benzyl ester], `Nc1ccc(-c2cnc(NC(=O)[C@@H]3CCCN3C(=O)OCc3ccccc3)s2)cc1` [Compound 5111, 2-[5-(4-Amino-phenyl)-thiazol-2-ylcarbamoyl]-pyrrolidine-1-carboxylic acid benzyl ester] is higher in inhibition at 10 µM: 25% for the first, 40% for the second.

Compared with `O=C(Nc1cccc(-c2cnc(NC(=O)[C@@H]3CCCN3C(=O)OCc3ccccc3)s2)c1)C1CC1` [Compound 5108, 2-{5-[3-(Cyclopropanecarbonyl-amino)-phenyl]-thiazol-2-ylcarbamoyl}-pyrrolidine-1-carboxylic acid benzyl ester], `O=C(Nc1ccccn1)c1ccc(-c2csc(NC(=O)[C@@H]3CCCN3C(=O)OCc3ccccc3)n2)cc1` [Compound 5372, 2-{4-[4-(Pyridin-2-ylcarbamoyl)-phenyl]-thiazol-2-ylcarbamoyl}-pyrrolidine-1-carboxylic acid benzyl ester] is higher in inhibition at 10 µM: 98.9% for the first, 99.9% for the second.

First: CC(C)(CN1CCOCC1)NC(=O)c1ccc(-c2csc(NC(=O)[C@@H]3CCCN3C(=O)OCc3ccccc3)n2)cc1 [Compound 5306, 2-{4-[4-(1,1-Dimethyl-2-morpholin-4-yl-ethylcarbamoyl)-phenyl]-thiazol-2-ylcarbamoyl}-pyrrolidine-1-carboxylic acid benzyl ester]
Second: Cc1ccc(S(=O)(=O)Nc2ccc(-c3csc(NC(=O)[C@@H]4CCCN4C(=O)OCc4ccccc4)n3)cc2)cc1 [Compound 5005, 2-{4-[4-(Toluene-4-sulfonylamino)-phenyl]-thiazol-2-ylcarbamoyl}-pyrrolidine-1-carboxylic acid benzyl ester]
The inhibition at 10 µM of the first is higher: 100% for the first, 99.8% for the second.

`O=C(Nc1cc(-c2ccccc2)nn1-c1ccccc1)[C@@H]1CCCN1C(=O)OCc1ccccc1` [Compound 5065, 2-(2,5-Diphenyl-2H-pyrazol-3-ylcarbamoyl)-pyrrolidine-1-carboxylic acid benzyl ester] was tested, and the inhibition at 10 µM was 27.2%.
